Results on 27 molecules are retold here after US8471005B2 (Cephalon, Inc., priority 2008, dated 2013).

Read-outs that look alike come from different tables or passages of the source.

The target in one assay is T1, JAK2 (Homo sapiens, UniProt O60674).
T1 construct: host or cells: baculovirus expression system
In words: Recombinant Human JAK2 Kinase Assay (TRF). Format: biochemical. As to conditions: read-out: JAK2 Potency. A digest of the protocol:
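Kinase activity of baculovirus-expressed JAK2 is followed on a surface-immobilised biotinylated peptide, with the reaction run for 20 min at room temperature in buffer containing 0.2 μM ATP and manganese. Phosphorylation is read with Eu-N1 PY100 antibody.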

A further assay deals with T2, ALK (Homo sapiens, UniProt Q9UM73).
T2 construct: host or cells: baculovirus expression system
T2 sequence (Q9UM73 19-1620): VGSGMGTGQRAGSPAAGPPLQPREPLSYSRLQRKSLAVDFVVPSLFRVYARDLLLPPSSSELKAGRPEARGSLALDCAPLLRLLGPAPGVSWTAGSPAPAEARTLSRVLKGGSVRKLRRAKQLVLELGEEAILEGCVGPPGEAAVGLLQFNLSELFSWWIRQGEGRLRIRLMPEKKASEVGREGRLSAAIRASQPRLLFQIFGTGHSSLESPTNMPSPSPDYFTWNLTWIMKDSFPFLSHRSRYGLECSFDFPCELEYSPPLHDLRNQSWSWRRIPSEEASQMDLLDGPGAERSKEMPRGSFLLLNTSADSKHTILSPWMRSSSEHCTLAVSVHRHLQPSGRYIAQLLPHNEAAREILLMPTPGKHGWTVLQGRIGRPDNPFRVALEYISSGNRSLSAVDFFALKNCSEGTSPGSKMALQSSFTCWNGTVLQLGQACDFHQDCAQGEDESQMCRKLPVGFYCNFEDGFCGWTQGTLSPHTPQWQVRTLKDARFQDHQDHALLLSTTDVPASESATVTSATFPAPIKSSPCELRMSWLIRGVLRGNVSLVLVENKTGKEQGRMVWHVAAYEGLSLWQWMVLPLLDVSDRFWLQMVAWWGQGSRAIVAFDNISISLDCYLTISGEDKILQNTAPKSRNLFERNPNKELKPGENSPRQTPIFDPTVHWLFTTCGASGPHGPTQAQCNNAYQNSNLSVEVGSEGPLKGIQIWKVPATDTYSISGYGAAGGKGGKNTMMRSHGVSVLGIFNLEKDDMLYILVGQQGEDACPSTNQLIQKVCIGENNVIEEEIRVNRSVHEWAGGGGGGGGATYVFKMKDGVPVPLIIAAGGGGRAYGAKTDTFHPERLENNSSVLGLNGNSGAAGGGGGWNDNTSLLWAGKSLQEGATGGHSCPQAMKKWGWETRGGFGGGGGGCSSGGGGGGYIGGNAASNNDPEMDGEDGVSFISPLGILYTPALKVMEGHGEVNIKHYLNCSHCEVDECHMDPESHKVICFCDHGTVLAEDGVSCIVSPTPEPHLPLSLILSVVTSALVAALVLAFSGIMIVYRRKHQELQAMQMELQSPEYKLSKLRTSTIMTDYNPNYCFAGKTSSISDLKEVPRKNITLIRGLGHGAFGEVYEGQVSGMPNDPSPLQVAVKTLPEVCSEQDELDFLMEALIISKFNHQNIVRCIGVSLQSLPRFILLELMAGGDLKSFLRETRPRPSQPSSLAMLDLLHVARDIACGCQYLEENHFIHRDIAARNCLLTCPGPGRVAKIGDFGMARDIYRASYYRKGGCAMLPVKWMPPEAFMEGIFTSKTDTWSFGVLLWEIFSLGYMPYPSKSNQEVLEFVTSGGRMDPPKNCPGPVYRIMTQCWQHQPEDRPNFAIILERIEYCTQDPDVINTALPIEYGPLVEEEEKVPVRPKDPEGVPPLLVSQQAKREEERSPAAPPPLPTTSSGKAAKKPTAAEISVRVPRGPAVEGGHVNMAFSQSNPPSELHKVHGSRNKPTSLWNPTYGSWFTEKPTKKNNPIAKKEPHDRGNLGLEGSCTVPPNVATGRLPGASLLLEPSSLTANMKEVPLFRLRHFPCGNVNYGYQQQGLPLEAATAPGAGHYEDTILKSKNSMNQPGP
In words: ALK Kinase Assay (ELISA/TRF, PLC-γ substrate). Format: biochemical. As to conditions: read-out: ALK Potency. The method in brief:
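Time-resolved fluorescence ELISA using Eu-N1 PT66 antibody to detect phosphorylated PLC-γ (coated at 10 μg/mL). Enzyme at 30 ng/ml ALK; 15 min incubation, 37° C.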

The mark [1] stands for this setting: JAK2 kinase inhibition, 0.2 μM ATP.
[2] abbreviates: ALK kinase inhibition, 1 μM ATP.

T1 sequence (O60674 whole entry): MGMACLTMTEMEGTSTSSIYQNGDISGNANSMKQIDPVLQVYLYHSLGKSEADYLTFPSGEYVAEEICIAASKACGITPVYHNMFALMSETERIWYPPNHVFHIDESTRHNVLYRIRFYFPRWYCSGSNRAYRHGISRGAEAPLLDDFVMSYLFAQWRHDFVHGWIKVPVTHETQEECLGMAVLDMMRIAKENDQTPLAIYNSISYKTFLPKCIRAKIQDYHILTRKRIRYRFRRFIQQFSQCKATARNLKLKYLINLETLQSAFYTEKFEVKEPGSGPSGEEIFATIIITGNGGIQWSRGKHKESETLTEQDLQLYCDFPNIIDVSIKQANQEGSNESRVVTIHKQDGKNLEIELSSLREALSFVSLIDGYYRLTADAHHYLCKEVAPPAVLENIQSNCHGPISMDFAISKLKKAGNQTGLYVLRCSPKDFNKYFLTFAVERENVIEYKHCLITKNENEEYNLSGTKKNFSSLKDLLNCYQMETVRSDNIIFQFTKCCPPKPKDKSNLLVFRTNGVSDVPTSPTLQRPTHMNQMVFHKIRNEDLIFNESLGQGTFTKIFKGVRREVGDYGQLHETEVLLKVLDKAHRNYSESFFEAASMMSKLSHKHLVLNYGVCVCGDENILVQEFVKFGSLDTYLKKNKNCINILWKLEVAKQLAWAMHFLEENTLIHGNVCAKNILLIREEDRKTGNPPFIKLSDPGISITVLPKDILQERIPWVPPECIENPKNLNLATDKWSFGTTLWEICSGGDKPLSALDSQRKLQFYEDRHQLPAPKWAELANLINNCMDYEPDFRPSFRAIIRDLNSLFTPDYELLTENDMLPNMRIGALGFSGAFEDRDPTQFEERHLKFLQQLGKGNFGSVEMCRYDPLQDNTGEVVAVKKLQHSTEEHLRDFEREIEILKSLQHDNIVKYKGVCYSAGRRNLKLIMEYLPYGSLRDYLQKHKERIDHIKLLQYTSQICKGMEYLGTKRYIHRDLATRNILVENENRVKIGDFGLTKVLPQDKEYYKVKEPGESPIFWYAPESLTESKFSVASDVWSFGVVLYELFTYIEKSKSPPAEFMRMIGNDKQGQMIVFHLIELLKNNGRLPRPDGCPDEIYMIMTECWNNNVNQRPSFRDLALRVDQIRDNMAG

As for `O=S(=O)(c1cccc(-c2ccc3cnc(Nc4ccc5nc(CO)[nH]c5c4)nn23)c1)N1CCCC1` [Example 1070, (6-{7-[3-(Pyrrolidine-1-sulfonyl)-phenyl]-pyrrolo[2,1-f][1,2,4]triazin-2-ylamino}-1H-benzoimidazol-2-yl)-methanol], the results for the IC50 at JAK2 (setting [1]) and on ALK (setting [2]) were < 100 nM and 1000 to 10000 nM, respectively.
As for `COc1cc(N2CCN(C)CC2)ccc1Nc1ncc2ccc(-c3ccccc3OC)n2n1` [Example 33, [2-Methoxy-4-(4-methyl-piperazin-1-yl)-phenyl]-[7-(2-methoxy-phenyl)-pyrrolo[2,1-f][1,2,4]triazin-2-yl]-amine], the IC50 on JAK2 (JAK2 Kinase Inhibition) and on ALK (ALK Kinase Inhibition) was < 100 nM throughout.
Consider `COCc1ccccc1-c1ccc2cnc(Nc3ccc(N4CCN(C)CC4)cc3)nn12` [Example 1500, [7-(2-Methoxymethyl-phenyl)-pyrrolo[2,1-f][1,2,4]triazin-2-yl]-[4-(4-methyl-piperazin-1-yl)-phenyl]-amine], for which the IC50 on JAK2 (JAK2 Kinase Inhibition) and at ALK (ALK Kinase Inhibition) was < 100 nM throughout.
On to `COc1ccc(-c2ccc3cnc(Nc4ccc5c(c4)CCN(CC(N)=O)C5)nn23)cn1` [Example 916, 2-{6-[7-(6-Methoxy-pyridin-3-yl)-pyrrolo[2,1-f][1,2,4]triazin-2-ylamino]-3,4-dihydro-1H-isoquinolin-2-yl}-acetamide], for which the IC50 on JAK2 (setting [1]) was < 100 nM; on ALK (setting [2]), > 10000 nM.
Turning to `COc1ccccc1-c1ccc2cnc(Nc3ccc4nc[nH]c4c3)nn12` [Example 1306, (3H-Benzimidazol-5-yl)-[7-(2-methoxy-phenyl)-pyrrolo[2,1-f][1,2,4]triazin-2-yl]-amine], the IC50 at JAK2 (setting [1]) is < 100 nM; on ALK (setting [2]), 100 to 1000 nM.
On the same counts, the results for `CN1CCN(c2ccc(Nc3ncc4ccc(-c5cccc(C(=O)OC(C)(C)C)c5)n4n3)cc2)CC1` [Example 1143, 3-{2-[4-(4-Methyl-piperazin-1-yl)-phenylamino]-pyrrolo[2,1-f][1,2,4]triazin-7-yl}-benzoic acid tert-butyl ester] are < 100 nM and 100 to 1000 nM.
Turning to `CN1CCN(C(=O)C2CCN(c3ccc(Nc4ncc5ccc(-c6cnn(C)c6)n5n4)cc3)CC2)CC1` [Example 1188, (4-Methyl-piperazin-1-yl)-(1-{4-[7-(1-methyl-1H-pyrazol-4-yl)-pyrrolo[2,1-f][1,2,4]triazin-2-ylamino]-phenyl}-piperidin-4-yl)-methanone], the IC50 on JAK2 (setting [1]) was < 100 nM; on ALK (setting [2]) it was 100 to 1000 nM.
As to `CN1CCN(c2ccc(Nc3ncc4ccc(-c5ccccc5NS(C)(=O)=O)n4n3)cc2)CC1` [Example 429, N-(2-{2-[4-(4-Methyl-piperazin-1-yl)-phenylamino]-pyrrolo[2,1-f][1,2,4]triazin-7-yl}-phenyl)-methanesulfonamide], the IC50 at JAK2 (JAK2 Kinase Inhibition) is < 100 nM; on ALK (ALK Kinase Inhibition) it was 100 to 1000 nM.
For `COc1cc(N2CCN(C)CC2)ccc1Nc1ncc2ccc(-c3ccc(S(C)(=O)=O)cc3)n2n1` [Example 62, [7-(4-Methanesulfonyl-phenyl)-pyrrolo[2,1-f][1,2,4]triazin-2-yl]-[2-methoxy-4-(4-methyl-piperazin-1-yl)-phenyl]-amine], the values for the IC50 on JAK2 (JAK2 Kinase Inhibition) and on ALK (ALK Kinase Inhibition) were < 100 nM and 100 to 1000 nM, respectively.
As to `c1cc2c(c(-c3ccc4cnc(Nc5cnn(C6CCNCC6)c5)nn34)c1)OCC2` [Example 715, [7-(2,3-Dihydrobenzofuran-7-yl)pyrrolo[2,1-f][1,2,4]triazin-2-yl]-(1-piperidin-4-yl-1H-pyrazol-4-yl)amine], the IC50 on JAK2 (setting [1]) was < 100 nM; at ALK (setting [2]), 100 to 1000 nM.
Take `COc1cc(Nc2ncc3ccc(-c4ccccc4N(C)S(C)(=O)=O)n3n2)ccc1C1CCN(CC(N)=O)CC1` [Example 914, 2-[4-(4-{7-[2-(Methanesulfonyl-methyl-amino)-phenyl]-pyrrolo[2,1-f][1,2,4]triazin-2-ylamino}-2-methoxy-phenyl)-piperidin-1-yl]-acetamide]: the IC50 at JAK2 (setting [1]) and at ALK (setting [2]) was < 100 nM throughout.
For the molecule `CN(C)c1cccc(Nc2ncc3ccc(-c4cccc(Cl)c4)n3n2)c1` [Example 159, N-[7-(3-Chloro-phenyl)-pyrrolo[2,1-f][1,2,4]triazin-2-yl]-N′,N′-dimethyl-benzene-1,3-diamine], the values for the IC50 on JAK2 (JAK2 Kinase Inhibition) and at ALK (ALK Kinase Inhibition) were 1000 to 10000 nM and > 10000 nM, respectively.
For `N#CCCn1cccc1-c1ccc2cnc(Nc3ccc(N4CCOCC4)cc3)nn12` [Example 1293, 3-{2-[2-(4-Morpholin-4-yl-phenylamino)-pyrrolo[2,1-f][1,2,4]triazin-7-yl]-pyrrol-1-yl}-propionitrile], the IC50 is < 100 nM at JAK2 (setting [1]) and 100 to 1000 nM on ALK (setting [2]).
As to `COc1ccc(-c2ccc3cnc(Nc4ccc(-c5csnn5)cc4)nn23)cn1` [Example 909, [7-(6-Methoxy-pyridin-3-yl)-pyrrolo[2,1-f][1,2,4]triazin-2-yl]-(4-[1,2,3]thiadiazol-4-yl-phenyl)-amine], the IC50 on JAK2 (setting [1]) is < 100 nM; on ALK (setting [2]) it was 1000 to 10000 nM.
On to `CC(C)(C)NS(=O)(=O)c1ccccc1-c1ccc2cnc(Nc3ccc(N4CCOCC4)cc3)nn12` [Example 412], for which the IC50 on JAK2 (JAK2 Kinase Inhibition) and at ALK (ALK Kinase Inhibition) was 100 to 1000 nM each time.
On to `COc1ccc(-c2ccc3cnc(Nc4ccc5c(c4)N(C(C)=O)CCCC5)nn23)cn1` [Example 631, 1-{8-[7-(6-Methoxy-pyridin-3-yl)-pyrrolo[2,1-f][1,2,4]triazin-2-ylamino]-2,3,4,5-tetrahydro-benzo[b]azepin-1-yl}ethanone], for which the IC50 on JAK2 (setting [1]) was < 100 nM; on ALK (setting [2]), > 10000 nM.
On the same counts, the results for `COc1ccc(N(C)S(C)(=O)=O)c(-c2ccc3cnc(Nc4ccc(C5CCN(CC(N)=O)CC5)cc4OC)nn23)c1` [Example 1283, 2-[4-(4-{7-[2-(Methanesulfonyl-methyl-amino)-5-methoxy-phenyl]-pyrrolo[2,1-f][1,2,4]triazin-2-ylamino}-3-methoxy-phenyl)-piperidin-1-yl]-acetamide] are > 10000 nM and 100 to 1000 nM.
On to `CN(c1ccccc1-c1ccc2cnc(OCCN3CCN(c4ccc(N)cc4)CC3)nn12)S(C)(=O)=O` [Example 1172, N-[2-(2-{2-[4-(4-Amino-phenyl)-piperazin-1-yl]-ethoxy}-pyrrolo[2,1-f][1,2,4]triazin-7-yl)-phenyl]-N-methyl-methanesulfonamide], for which the IC50 at JAK2 (setting [1]) was 1000 to 10000 nM; at ALK (setting [2]), > 10000 nM.
On the same counts, the results for `COc1ccccc1-c1ccc2cnc(Nc3ccc4c(c3OC)CN(C3COC3)C4)nn12` [Example 851, (4-Methoxy-2-oxetan-3-yl-2,3-dihydro-1H-isoindol-5-yl)-[7-(2-methoxy-phenyl)-pyrrolo[2,1-f][1,2,4]triazin-2-yl]-amine] are 100 to 1000 nM and 100 to 1000 nM.
With `CN1CCN(c2ccc(Nc3ncc4ccc(-c5ccccc5)n4n3)cc2)CC1` [Example 7, [4-(4-Methyl-piperazin-1-yl)-phenyl]-(7-phenyl-pyrrolo[2,1-f][1,2,4]triazin-2-yl)-amine], the IC50 on JAK2 (JAK2 Kinase Inhibition) and at ALK (ALK Kinase Inhibition) was < 100 nM each time.
Consider `COc1cc(C2CCN(C[C@H](Oc3ncc4ccc(-c5ccccc5N(C)S(C)(=O)=O)n4n3)C(F)(F)F)CC2)ccc1N` [Example 785, N-[2-(2-{(S)-1-[4-(4-Amino-3-methoxy-phenyl)-piperidin-1-ylmethyl]-2,2,2-trifluoro-ethoxy}-pyrrolo[2,1-f][1,2,4]triazin-7-yl)-phenyl]-N-methyl-methanesulfonamide], for which the IC50 at JAK2 (setting [1]) and at ALK (setting [2]) was > 10000 nM throughout.
For `COc1cc(N2CCC(NCCO)CC2)ccc1Nc1ncc2ccc(-c3ccccc3OC)n2n1` [Example 797, 2-(1-{3-Methoxy-4-[7-(2-methoxy-phenyl)-pyrrolo[2,1-f][1,2,4]triazin-2-ylamino]-phenyl}-piperidin-4-ylamino)-ethanol], the IC50 on JAK2 (setting [1]) and at ALK (setting [2]) was < 100 nM throughout.
On to `O=S(=O)(NC1CC1)c1cccc(-c2ccc3cnc(Nc4ccc(N5CCOCC5)cc4)nn23)c1` [Example 356, N-Cyclopropyl-3-[2-(4-morpholin-4-yl-phenylamino)-pyrrolo[2,1-f][1,2,4]triazin-7-yl]-benzenesulfonamide], for which the results for the IC50 at JAK2 (JAK2 Kinase Inhibition) and on ALK (ALK Kinase Inhibition) were < 100 nM and 100 to 1000 nM, respectively.
`CN1CCN(C)C(c2cccc(Nc3ncc4ccc(-c5cccc(S(C)(=O)=O)c5)n4n3)c2)C1=O` (stereo not drawn) [Example 1080, 3-{3-[7-(3-Methanesulfonyl-phenyl)-pyrrolo[2,1-f][1,2,4]triazin-2-ylamino]-phenyl}-1,4-dimethyl-piperazin-2-one]: the IC50 was < 100 nM at JAK2 (setting [1]) and 1000 to 10000 nM on ALK (setting [2]).
Regarding `CN1CCC(c2ccc(Nc3ncc4ccc(-c5cccc(S(C)(=O)=O)c5)n4n3)cc2)CC1` [Example 1120, [7-(3-Methanesulfonyl-phenyl)-pyrrolo[2,1-f][1,2,4]triazin-2-yl]-[4-(1-methyl-piperidin-4-yl)-phenyl]-amine], the IC50 on JAK2 (setting [1]) is < 100 nM; on ALK (setting [2]), 100 to 1000 nM.
Turning to `CC(=O)N1CCCC(C)(C)c2ccc(Nc3ncc4ccc(-c5cccc(S(=O)(=O)NC(C)(C)C)c5)n4n3)cc21` [Example 1369, 3-[2-(1-Acetyl-5,5-dimethyl-2,3,4,5-tetrahydro-1H-benzo[b]azepin-8-ylamino)-pyrrolo[2,1-f][1,2,4]triazin-7-yl]-N-tert-butyl-benzenesulfonamide], the values for the IC50 on JAK2 (JAK2 Kinase Inhibition) and on ALK (ALK Kinase Inhibition) were < 100 nM and 1000 to 10000 nM, respectively.
For `COc1cc(N2CCC(N3CCN(S(C)(=O)=O)CC3)CC2)ccc1Nc1ncc2ccc(-c3ccccc3OC)n2n1` [Example 535, {4-[4-(4-Methanesulfonyl-piperazin-1-yl)-piperidin-1-yl]-2-methoxy-phenyl}-[7-(2-methoxy-phenyl)-pyrrolo[2,1-f][1,2,4]triazin-2-yl]-amine], the IC50 on JAK2 (setting [1]) and on ALK (setting [2]) was < 100 nM each time.
